Reference: publication PMC10819771 (Pharmaceuticals, 2023)
Read-outs that look alike come from different tables or passages of the source.

Key:
[1] = test system: FK-RAST; experiment: FRET-melting, FK-RAST; type: binding; details: ligand 2 μM, DNA 0.2 μM, 10 mM KCl, 90 mM LiCl, pH 7.2
Procedure: (§1) FRET-melting experiments were conducted on a Stratagene MX3005P (Thermo Fisher Scientific, Illkirch-Graffenstaden, France) real-time PCR equipment in 96-well plates on the DNA sequences reported in Table 4. Experiments were performed in 10 mM lithium cacodylate buffer (pH 7.2) and either 10 mM KCl and 90 mM LiCl (FK-RAST, FBCL-2T, F21T, and FdxT) or 1 mM KCl and 99 mM LiCl (Fc-MYCT) concentrations, depending on the Tm of the G4s alone. The DNA concentration was 0.2 µM. […] Data are presented as an average of three independent measurements, each conducted in duplicate conditions (λexc = 492 nm, λem = 516 nm, T interval = 25–95 °C, ramp: 25 °C for 5 min, then 1 °C/min, measurements every 1 °C, 8× magnification of the fluorescence signal).

[2] = test system: Fc-MYCT; experiment: FRET-melting, Fc-MYCT; type: binding; details: ligand 2 μM, DNA 0.2 μM, K+ conditions, pH 7.2
Procedure: as §1

[3] = test system: FBCL-2T; experiment: FRET-melting, FBCL-2T; type: binding; details: ligand 2 μM, DNA 0.2 μM, 10 mM KCl, 90 mM LiCl, pH 7.2
Procedure: as §1

[4] = test system: SiHa; experiment: MTT antiproliferative assay, SiHa; type: cell-based, human; details: for IC50: MTT, 72 h, cervical cancer cells, read-out: IC50 Values (μM) ± SEM SiHa; for Selectivity Index HEK293/SiHa: IC50 HEK293 / IC50 SiHa
Procedure: (§2) The growth-inhibitory effects of the compounds were determined by MTT (3-(4,5-dimethylthiazol-2-yl)-2,5-diphenyltetrazolium bromide) assay on selected cell lines, including HeLa and SiHa (cervical cancers), MDA-MB-231 and MCF-7 (breast cancers), and A2780 ovarian cancer cells. All cell lines were purchased from the European Collection of Cell Cultures (Salisbury, UK) except SiHa, which was obtained from the American Tissue Culture Collection (Manassas, VA, USA). The cells were kept in minimum essential medium supplemented with 10% fetal bovine serum, 1% non-essential amino acids, and 1% penicillin-streptomycin-amphotericin-B at 37 °C in a humidified atmosphere containing 5% CO2. Media and supplements were obtained from Lonza Group Ltd., (Basel, Switzerland). Cancer cells were seeded onto 96-well plates (5000 cells/well), after an overnight incubation the test compounds were added in six concentrations (0.1, 0.3, 1.0, 3.0, 10.0, 30.0 µM) and incubated for 72 h under cell-culture condition. After the incubation, 20 μL of 5 mg/mL MTT solution was added to each well and incubated for a further 4 h. The medium was removed, and the precipitated formazan crystals were dissolved in DMSO for 30 min under shaking at 37 °C. The absorbance was measured at 545 nm with a microplate reader. Untreated cells were included as controls. Calculations were performed by means of the GraphPad Prism 5.01 software (GraphPad Software Inc., San Diego, CA, USA). At least two independent determinations were performed with 5 parallel wells for each condition.

[5] = test system: HeLa; experiment: MTT antiproliferative assay, HeLa; type: cell-based, human; details: for IC50: MTT, 72 h, cervical cancer cells, read-out: IC50 Values (μM) ± SEM HeLa; for Selectivity Index HEK293/HeLa: IC50 HEK293 / IC50 HeLa
Procedure: as §2

[6] = test system: A2780; experiment: MTT antiproliferative assay, A2780; type: cell-based, human; details: for IC50: MTT, 72 h, ovarian cancer cells, read-out: IC50 Values (μM) ± SEM A2780; for Selectivity Index HEK293/A2780: IC50 HEK293 / IC50 A2780
Procedure: as §2

[7] = test system: HEK293; experiment: MTT proliferation test on normal cells, HEK293; type: cell-based; details: Homo sapiens, normal epithelial cells, cytotoxicity, read-out: IC50 Values (μM) ± SEM HEK293
Procedure: The MTT proliferation test on the epithelial cell line HEK293 was performed as pre-viously described. The 50% inhibiting concentrations (IC50) were determined by linear regression analysis.

[8] = test system: telomerase; experiment: Telomerase activity (TRAP assay) in MCF-7 cell lysates; type: biochemical, human; details: 5 µM compound, MCF-7 cell lysate
Procedure: Telomerase activity was assessed using the TRAP assay kit (TRAPeze® RT telomerase detection kit, Chemicon, Millipore Sigma S7700, Merck KGaA, Darmstadt, Germany) according to manufacturer’s instructions with some modifications. Briefly, […] in CHAPS lysis buffer and proteins were extracted. Protein extracts and various concentrations of compounds (0 to 5 µM) were used to extend a synthetic telomeric DNA using an enzymatic reaction (30 °C during 20 min), followed by a quantification of telomeric DNA using a telomeric PCR amplification: 95 °C for 3 min, 2 cycles of 95 °C for 20 s, and 49 °C for 20 s, followed by 30 cycles 95 °C for 20 s and 60 °C for 20 s with signal acquisition) in a Stratagene Mx3005P system (Agilent, Les Ulis, France) using specific telomeric PCR quantitative primers. Each sample was measured in technical duplicate with control DNA. For each drug and each dilution, we used biological triplicate of cell lysates.

[9] = test system: K562; experiment: MTS cell proliferation assay, K562; type: cell-based, human; details: for IC50: MTS, 3-day incubation, leukemia cells, read-out: IC50 Values (μM) ± SEM K562; for Selectivity Index HEK293/K562: IC50 HEK293 / IC50 K562
Procedure: The human leukemic cell line K562 was grown in RPMI 1640 medium (Life Technology-Invitrogen by Thermo Fisher Scientific, Saint-Aubin, France) supplemented with 10% fetal calf serum (FCS), antibiotics (100 U/mL penicillin, 100 µg/mL streptomycin), and L-glutamine, (Eurobio, Les Ulis, France) at 37 °C, 5% CO2 in air. The MTS cell proliferation assay (Promega, Charbonnières-les-Bains, France) is a colorimetric assay system, which measures the transformation of a tetrazolium component (MTS) into formazan produced by the mitochondria of viable cells. Cells were washed twice in PBS (Phosphate Buffer Saline) and plated in quadruplicate into microtiter-plate wells in 100 μL culture media with or without our various compounds at increasing concentrations (0, 1, 5, 10, 20, and 50 μM) for 1, 2, and 3 days. After 3 h of incubation at 37 °C with 20 μL MTS/well, the plates were read using an ELISA microplate reader (Thermo, Electrocorporation, Waltham, MA, USA) at 490 nm. The amount of color produced was directly proportional to the number of viable cells. The results are expressed as the concentrations inhibiting cell growth by 50% after a 3-day incubation period. The 50% cytotoxic concentrations (CC50) were determined by linear regression analysis, expressed in μM ± SD (Microsoft Excel).

[10] = test system: FdxT; experiment: FRET-melting, duplex control FdxT; type: binding; details: ligand 2 μM, DNA 0.2 μM, 10 mM KCl, 90 mM LiCl, pH 7.2, hairpin duplex
Procedure: as §1

[11] = test system: MDA-MB-231; experiment: MTT antiproliferative assay, MDA-MB-231; type: cell-based, human; details: for IC50: MTT, 72 h, breast cancer cells, read-out: IC50 Values (μM) ± SEM MDA-MB-231; for Selectivity Index HEK293/MDA-MB-231: IC50 HEK293 / IC50 MDA-MB-231
Procedure: as §2

[12] = test system: MCF-7; experiment: MTT antiproliferative assay, MCF-7; type: cell-based, human; details: for IC50: MTT, 72 h, breast cancer cells, read-out: IC50 Values (μM) ± SEM MCF-7; for Selectivity Index HEK293/MCF-7: IC50 HEK293 / IC50 MCF-7
Procedure: as §2

[13] = test system: human telomeric sequence F21T; experiment: FRET-melting, F21T; type: binding; details: ligand 2 μM, DNA 0.2 μM, 10 mM KCl, 90 mM LiCl, pH 7.2
Procedure: as §1

CN(C)CCCNCc1ccc(-c2nc(-c3ccc(CNCCCN(C)C)cc3)c3ccc(-c4ccccc4)cc3n2)cc1 [Compound 12f, 2,4-bis{4-[(3-dimethylaminopropyl)aminomethyl]phenyl}-7-phenylquinazoline]
ΔT1/2 (°C) FK-RAST [1]: 20.1 ± 0.3 °C | ΔT1/2 (°C) Fc-MYCT [2]: 9.1 ± 1.4 °C | ΔT1/2 (°C) FBCL-2T [3]: 12.6 ± 0.6 °C | IC50 ([4]; Homo sapiens, SiHa): 0.75 ± 0.1 µM | Selectivity Index HEK293/SiHa [4]: >40.0 | IC50 ([5]; Homo sapiens, HeLa): 1.51 ± 0.09 µM | Selectivity Index HEK293/HeLa [5]: >19.9 | IC50 ([6]; Homo sapiens, A2780): 0.79 ± 0.19 µM | Selectivity Index HEK293/A2780 [6]: >38.0 | IC50 [7]: > 30 µM | telomerase activity compared to control [8]: reduced drastically | IC50 ([9]; Homo sapiens, K562, 72 h): 14 ± 0.3 µM | Selectivity Index HEK293/K562 [9]: >2.14 | ΔT1/2 (°C) FdxT [10]: 2.4 ± 0.1 °C | IC50 ([11]; Homo sapiens, MDA-MB-231, 72 h): 0.55 ± 0.01 µM | Selectivity Index HEK293/MDA-MB-231 [11]: >54.5 | IC50 ([12]; Homo sapiens, MCF7, 72 h): 0.58 ± 0.08 µM | Selectivity Index HEK293/MCF-7 [12]: >51.7

CN1CCN(CCCCNCc2ccc(-c3nc(-c4ccc(CNCCCCN5CCN(C)CC5)cc4)c4ccc(-c5ccccc5)cc4n3)cc2)CC1 [Compound 12j, 2,4-bis{4-[(4-(4-methylpiperazin-1-yl)butyl)aminomethyl]phenyl}-7-phenylquinazoline]
ΔT1/2 (°C) FK-RAST [1]: 18.7 ± 1.6 °C | ΔT1/2 (°C) Fc-MYCT [2]: 14.1 ± 0.3 °C | ΔT1/2 (°C) FBCL-2T [3]: 9.8 ± 1.0 °C | IC50 ([4]; Homo sapiens, SiHa): 0.33 ± 0.08 µM | Selectivity Index HEK293/SiHa [4]: 14.85 | IC50 ([5]; Homo sapiens, HeLa): 1.48 ± 0.8 µM | Selectivity Index HEK293/HeLa [5]: 3.31 | IC50 ([6]; Homo sapiens, A2780): 1.44 ± 0.1 µM | Selectivity Index HEK293/A2780 [6]: 3.40 | IC50 [7]: 4.9 ± 0.15 µM | IC50 ([9]; Homo sapiens, K562, 72 h): 8 ± 0.2 µM | Selectivity Index HEK293/K562 [9]: 0.61 | ΔT1/2 (°C) FdxT [10]: 1.5 ± 0.4 °C | IC50 ([11]; Homo sapiens, MDA-MB-231, 72 h): 1.1 ± 0.15 µM | Selectivity Index HEK293/MDA-MB-231 [11]: 4.45 | IC50 ([12]; Homo sapiens, MCF7, 72 h): 0.58 ± 0.25 µM | Selectivity Index HEK293/MCF-7 [12]: 8.45 | ΔT1/2 (°C) F21T [13]: 14.5 ± 1.2 °C

CC1CN(CCCNCc2ccc(-c3nc(-c4ccc(CNCCCN5CCNC(C)C5)cc4)c4cccc(-c5ccccc5)c4n3)cc2)CCN1 (centres unmarked) [Compound 12m, 2,4-bis{4-[(4-(3-methylpiperazin-1-yl)propyl)aminomethyl]phenyl}-8-phenylquinazoline]
ΔT1/2 (°C) FK-RAST [1]: 18.2 ± 0.6 °C | ΔT1/2 (°C) Fc-MYCT [2]: 14.6 ± 0.9 °C | ΔT1/2 (°C) FBCL-2T [3]: 15.5 ± 0.3 °C | IC50 [4]: 0.88 ± 0.14 µM | IC50 [5]: 1.17 ± 0.23 µM | IC50 [6]: 2.1 ± 0.48 µM | IC50 [9]: 7 ± 0.2 µM | ΔT1/2 (°C) FdxT [10]: 2.2 ± 0.2 °C | IC50 [11]: 2 ± 0.45 µM | IC50 [12]: 1.22 ± 0.19 µM | ΔT1/2 (°C) F21T [13]: 23.3 ± 0.7 °C

CN(C)CCCCNCc1ccc(-c2nc(-c3ccc(CNCCCCN(C)C)cc3)c3ccc(-c4ccccc4)cc3n2)cc1 [Compound 12g, 2,4-bis{4-[(4-dimethylaminobutyl)aminomethyl]phenyl}-7-phenylquinazoline]
ΔT1/2 (°C) FK-RAST [1]: 24.3 ± 1.1 °C | ΔT1/2 (°C) Fc-MYCT [2]: 14.7 ± 0.8 °C | ΔT1/2 (°C) FBCL-2T [3]: 17.5 ± 0.6 °C | IC50 ([4]; Homo sapiens, SiHa): 0.52 ± 0.22 µM | Selectivity Index HEK293/SiHa [4]: 7.65 | IC50 ([5]; Homo sapiens, HeLa): 0.95 ± 0.51 µM | Selectivity Index HEK293/HeLa [5]: 4.19 | IC50 ([6]; Homo sapiens, A2780): 1.74 ± 0.89 µM | Selectivity Index HEK293/A2780 [6]: 2.29 | IC50 [7]: 3.98 ± 0.12 µM | IC50 ([9]; Homo sapiens, K562, 72 h): 12 ± 0.3 µM | Selectivity Index HEK293/K562 [9]: 0.33 | ΔT1/2 (°C) FdxT [10]: 3.2 ± 0.3 °C | IC50 ([11]; Homo sapiens, MDA-MB-231, 72 h): 0.67 ± 0.35 µM | Selectivity Index HEK293/MDA-MB-231 [11]: 5.94 | IC50 ([12]; Homo sapiens, MCF7, 72 h): 0.63 ± 0.35 µM | Selectivity Index HEK293/MCF-7 [12]: 6.32 | ΔT1/2 (°C) F21T [13]: 19.2 ± 1.0 °C
